Ten compounds from PubChem BioAssay (NCI) can be followed below.

Values joined by “and” are separate entries in the source; they are usually repeats but may differ in a detail not shown here. Equal values may be shown once.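 Assay format: 96-well plates, 48-hour exposure. Here, GI50 denotes the concentration required for 50% inhibition of growth. TGI denotes the concentration required for complete inhibition of growth.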

Test systems include LOX IMVI melanoma; ACHN renal; A549 NSCLC; A498 renal; OVCAR-4 ovarian; T-47D breast; MDA-MB-231 breast; HOP-92 NSCLC; MOLT-4 leukemia; RPMI-8226 leukemia.
Common to all, as to assay: inhibition of tumour cell growth, NCI panel, 48 h

With `C[N+](C)(C)CC1CCCc2ccccc2C1=O` (stereo not given), the GI50 in the experiment on LOX IMVI melanoma was 1.93 µM and 2.23 µM; with A549 NSCLC, 18.6 µM; in the experiment on OVCAR-4 ovarian it was 15.7 µM; in the experiment with T-47D breast, 19.1 µM; in the experiment with MOLT-4 leukemia, 0.388 µM. The TGI was 4.78 µM and 5.93 µM in the experiment with LOX IMVI melanoma; 9.71 µM in the experiment on ACHN renal; 5.72 µM and 36.6 µM with A549 NSCLC; 27.6 µM in the experiment on A498 renal; 41.2 µM in the experiment with OVCAR-4 ovarian; 30.6 µM in the experiment on MDA-MB-231 breast. The TGI with HOP-92 NSCLC was 26.7 µM; in the experiment on MOLT-4 leukemia, 7.79 µM and 1.06 µM.
With `O=C(O)COc1ccc2c(=O)c3sc4c(=O)c5ccccc5c(=O)c4c3c(=O)c2c1`, the GI50 in the experiment with LOX IMVI melanoma is 9.18 µM; with ACHN renal it was 23 µM; with A549 NSCLC it was 11.2 µM; with A498 renal it was 14.7 µM; in the experiment on OVCAR-4 ovarian it was 14.1 µM; in the experiment with T-47D breast it was 21.4 µM. Moreover, the GI50 in the experiment on MDA-MB-231 breast was 17.8 µM; in the experiment on RPMI-8226 leukemia, 27.6 µM; in the experiment on HOP-92 NSCLC it was 18.9 µM; in the experiment with MOLT-4 leukemia, 21.5 µM. Moreover, the TGI in the experiment with LOX IMVI melanoma was 61.1 µM; with ACHN renal, over 100 µM; in the experiment on A549 NSCLC, 26.5 µM; with A498 renal, 28.1 µM; in the experiment on OVCAR-4 ovarian it was 27.3 µM; in the experiment on T-47D breast, 50.9 µM. The TGI came out at 71.7 µM with MDA-MB-231 breast, 77.6 µM in the experiment on RPMI-8226 leukemia, 43.2 µM in the experiment with HOP-92 NSCLC and 52.6 µM in the experiment on MOLT-4 leukemia.
For the compound `COc1ccc(/C=C\[N+](=O)[O-])cc1OC`, the GI50 was 1.66 µM in the experiment with LOX IMVI melanoma; 3.68 µM in the experiment with ACHN renal; 1.94 µM with A549 NSCLC; 14 µM in the experiment on OVCAR-4 ovarian; 7.6 µM in the experiment with T-47D breast; 3.73 µM in the experiment with MDA-MB-231 breast. Besides, the GI50 with RPMI-8226 leukemia was 2.06 µM; with HOP-92 NSCLC, 12.4 µM; with MOLT-4 leukemia, 4.1 µM. Further, the TGI with LOX IMVI melanoma is 3.45 µM; in the experiment with ACHN renal, 13.9 µM; with A549 NSCLC it was 4.97 µM; in the experiment with OVCAR-4 ovarian, 27.5 µM; in the experiment with T-47D breast, 38.2 µM; in the experiment with MDA-MB-231 breast, 13.1 µM. The TGI with RPMI-8226 leukemia stood at 5.28 µM; with HOP-92 NSCLC it was 48.4 µM; with MOLT-4 leukemia, 38 µM.
For `Nc1ccc([N+](=O)[O-])cc1N=C/C=C/c1ccccc1`, the GI50 in the experiment with LOX IMVI melanoma was 3.98 µM; with ACHN renal, 34.4 µM; with A549 NSCLC, 21.9 µM; with A498 renal, 15.1 µM; in the experiment with OVCAR-4 ovarian it was 11.2 µM; in the experiment with T-47D breast it was 15.7 µM. For the same compound, the GI50 in the experiment with MDA-MB-231 breast was 7.57 µM; with RPMI-8226 leukemia it was 5.05 µM; in the experiment with MOLT-4 leukemia, 3.89 µM. The TGI with LOX IMVI melanoma was 80.7 µM; in the experiment on ACHN renal, over 100 µM; in the experiment with A549 NSCLC, over 100 µM; in the experiment on A498 renal it was 64.4 µM; in the experiment on OVCAR-4 ovarian, 90.2 µM; in the experiment on T-47D breast, 77.7 µM. The TGI in the experiment with MDA-MB-231 breast, in the experiment on RPMI-8226 leukemia and with MOLT-4 leukemia was over 100 µM throughout.
With `CSc1nc(=O)n(CCC#N)nc1SC`, the TGI in the experiment with LOX IMVI melanoma is 43.5 µM; with ACHN renal it was over 100 µM; with A549 NSCLC, over 100 µM; with A498 renal, over 100 µM; in the experiment with T-47D breast, 62.7 µM; in the experiment on MDA-MB-231 breast, over 100 µM. Moreover, the TGI stood at 98.4 µM with RPMI-8226 leukemia and 67.6 µM in the experiment on MOLT-4 leukemia.
For the compound `CC1(C)CC(=O)C(C=NC(=S)c2ccccc2)=C(O)C1`, the TGI in the experiment with LOX IMVI melanoma, in the experiment with ACHN renal, in the experiment with A549 NSCLC, in the experiment on OVCAR-4 ovarian, in the experiment on MDA-MB-231 breast and in the experiment with HOP-92 NSCLC was over 100 µM each time. In the experiment with MOLT-4 leukemia, the TGI was over 100 µM.
On to `NC(=O)/C=C/C(=O)c1c(Cl)cccc1Cl`, for which the GI50 in the experiment on LOX IMVI melanoma was 0.793 µM; in the experiment with ACHN renal, 0.323 µM; with A549 NSCLC it was 1.79 µM; in the experiment with A498 renal, 1.44 µM; in the experiment with T-47D breast, 0.191 µM; with MDA-MB-231 breast it was 1.23 µM. Besides, the GI50 with RPMI-8226 leukemia is 0.264 µM; in the experiment on HOP-92 NSCLC, 0.574 µM; in the experiment with MOLT-4 leukemia, 1.18 µM. In addition, the TGI in the experiment on LOX IMVI melanoma was 2.16 µM; with ACHN renal it was 0.853 µM; with A549 NSCLC, 3.39 µM; with A498 renal, 2.74 µM; in the experiment with T-47D breast, 0.408 µM; with MDA-MB-231 breast it was 2.47 µM. In addition, the TGI was found to be 1.14 µM in the experiment on RPMI-8226 leukemia, 1.94 µM with HOP-92 NSCLC and 5.46 µM in the experiment with MOLT-4 leukemia.
`COc1ccc(Sc2[nH]c(C(C)=O)c3ccccc23)cc1`: the GI50 in the experiment with LOX IMVI melanoma was 11.8 µM; in the experiment on ACHN renal it was 16.5 µM; in the experiment with A549 NSCLC it was 4 µM; in the experiment on A498 renal it was 0.265 µM; in the experiment with OVCAR-4 ovarian, 13.3 µM; with T-47D breast it was 8.41 µM. Further, the GI50 in the experiment with MDA-MB-231 breast was 11.4 µM; in the experiment on RPMI-8226 leukemia, 10.9 µM; with HOP-92 NSCLC, 2.4 µM. Besides, the TGI in the experiment on LOX IMVI melanoma is 24.4 µM; in the experiment with ACHN renal, 49.6 µM; in the experiment with A549 NSCLC, 51.3 µM; in the experiment with A498 renal, 0.848 µM; with OVCAR-4 ovarian, 32 µM; in the experiment with T-47D breast, 36 µM. Moreover, the TGI in the experiment on MDA-MB-231 breast was determined as 29.5 µM; in the experiment with RPMI-8226 leukemia it was 33.4 µM; in the experiment on HOP-92 NSCLC, 18.1 µM.
In the case of `CC(=O)Nc1ccc(S(=O)(=O)N2C(=O)CCC2C(=O)Nc2ccc(Br)cc2)cc1` (stereo not given), the GI50 with LOX IMVI melanoma is 0.972 µM; with ACHN renal it was 2.13 µM; in the experiment on A549 NSCLC, 1.6 µM; in the experiment on A498 renal, 0.435 µM; in the experiment with T-47D breast it was 0.532 µM; with MDA-MB-231 breast, 1.29 µM. Also, the GI50 in the experiment with RPMI-8226 leukemia is 0.806 µM; with HOP-92 NSCLC it was 1.13 µM; in the experiment on MOLT-4 leukemia, 2.2 µM. Besides, the TGI came to 7.39 µM in the experiment on LOX IMVI melanoma; 12.2 µM in the experiment on ACHN renal; 13.4 µM with A549 NSCLC; 4.71 µM in the experiment with A498 renal; 5.93 µM in the experiment on T-47D breast; 6.94 µM in the experiment with MDA-MB-231 breast. Besides, the TGI turned out to be 4.46 µM in the experiment with RPMI-8226 leukemia, 5.25 µM in the experiment on HOP-92 NSCLC and 10.3 µM with MOLT-4 leukemia.
Regarding `CC(=O)CCn1c(=S)sc2ccccc21`, the TGI in the experiment on LOX IMVI melanoma, in the experiment on ACHN renal, with A549 NSCLC, in the experiment on OVCAR-4 ovarian, in the experiment with MDA-MB-231 breast and in the experiment on HOP-92 NSCLC was over 100 µM throughout. In the experiment on MOLT-4 leukemia, this compound registered a TGI of over 100 µM.
